This passage reports IC50 and inhibition results from US8329913B2, “Carbazole derivative, solvate thereof, or pharmaceutically acceptable salt thereof” (Zeria Pharmaceutical Co., Ltd., priority 2004, dated 2012).

The test addresses T1, human PPARγ (Homo sapiens, UniProt P37231).
T1 construct: 1.6 kb of fragment of the prepared plasmid pGEMT-hPPARg2 including human PPARγ gene; expressed in transfected cells; host or cells: CV-1 cells, transient transfection with pCI-hPPARg2, pCI-hRXRa and the reporter pGL3-PPRE3-TK
T1 sequence (P37231 1-505): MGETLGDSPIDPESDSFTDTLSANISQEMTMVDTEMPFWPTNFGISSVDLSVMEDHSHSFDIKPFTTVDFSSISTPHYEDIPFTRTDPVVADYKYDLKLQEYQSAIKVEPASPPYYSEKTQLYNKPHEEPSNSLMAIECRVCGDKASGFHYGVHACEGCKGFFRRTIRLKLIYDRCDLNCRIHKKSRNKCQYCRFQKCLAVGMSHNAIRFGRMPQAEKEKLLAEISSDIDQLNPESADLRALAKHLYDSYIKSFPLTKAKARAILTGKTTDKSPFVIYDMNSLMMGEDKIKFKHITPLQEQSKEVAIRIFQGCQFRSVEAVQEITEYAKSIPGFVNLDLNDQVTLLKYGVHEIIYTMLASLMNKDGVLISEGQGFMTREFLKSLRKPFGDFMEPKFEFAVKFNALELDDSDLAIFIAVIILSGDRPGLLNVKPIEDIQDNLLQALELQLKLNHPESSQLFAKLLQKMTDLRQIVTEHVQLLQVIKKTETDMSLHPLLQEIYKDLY
T1 sequence (P19793 1-462 partner): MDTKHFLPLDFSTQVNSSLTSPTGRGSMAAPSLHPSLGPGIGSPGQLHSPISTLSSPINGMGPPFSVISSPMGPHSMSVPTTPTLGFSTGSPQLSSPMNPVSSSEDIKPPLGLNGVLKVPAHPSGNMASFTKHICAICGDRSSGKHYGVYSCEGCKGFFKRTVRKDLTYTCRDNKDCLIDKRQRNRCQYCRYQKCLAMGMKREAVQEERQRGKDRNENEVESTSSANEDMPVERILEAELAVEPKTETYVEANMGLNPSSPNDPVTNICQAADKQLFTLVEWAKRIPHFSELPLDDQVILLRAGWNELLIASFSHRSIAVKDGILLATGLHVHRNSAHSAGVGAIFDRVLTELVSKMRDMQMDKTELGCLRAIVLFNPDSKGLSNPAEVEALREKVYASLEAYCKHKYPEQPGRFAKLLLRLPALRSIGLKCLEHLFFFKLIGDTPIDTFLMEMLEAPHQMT
The test is described as follows: Human PPARγ antagonist assay (luciferase reporter in transfected CV-1 cells). It is filed as cell-based. The note with it: for IC50: CV-1 cells expressing human PPARγ and RXRα with reporter plasmid, pioglitazone 1 μM as stimulant, 24 hours, read-out: Human PPARγ antagonist activities, Inhibition IC50. The method in brief:
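CV-1 cells transiently co-transfected with human PPARγ2, RXRα, PPRE3-TK firefly luciferase and renilla plasmids were exposed 24 h at 37 °C to compound (10 nM–3 μM) plus 1 μM pioglitazone. Firefly/renilla ratios were scaled between pioglitazone alone (0%) and no addition (100%), and IC50 was taken at 50% inhibition.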
Background: Reporter assays use an easily measured gene product as a stand-in for the process of interest.

As to `COc1cc(Cn2c3ccccc3c3c(OCCC(C)C(=O)O)cccc32)ccc1OCc1nc(-c2ccccc2)oc1C` (racemic) [Example 27, (±)-4-{9-[3-methoxy-4-((5-methyl-2-phenyl-oxazole-4-yl)methoxy)-benzyl]-9H-carbazole-4-yloxy}-2-methyl-butyric acid], the IC50 (usually the concentration at which inhibition is half-maximal) stood at 688 nM.

As to `COc1cc(Cn2c3ccccc3c3c(OCC(C)(C)C(=O)O)cccc32)ccc1OCc1nc(-c2cccs2)oc1C` [Example 24, 3-{9-[3-methoxy-4-((5-methyl-2-(thiophene-2-yl)-oxazole-4-yl)methoxy)-benzyl]-9H-carbazole-4-yloxy}-2,2-dimethyl-propionic acid], the IC50 was 71 nM.

For `CCC(Oc1cccc2c1c1ccccc1n2Cc1ccc(OCc2nc(-c3ccccc3)oc2C)c(OC)c1)C(=O)[O-].[Na+]` (stereo not drawn) [Example 31], the IC50 amounted to 406 nM.

As for `COc1cc(Cn2c3ccccc3c3c(OC(C)(C)C(=O)O)cccc32)ccc1OCc1sc(-c2ccccc2)nc1C` [Example 16, 2-{9-[3-methoxy-4-((4-methyl-2-phenyl-thiazole-5-yl)methoxy)-benzyl]-9H-carbazole-4-yloxy}-2-methyl-propionic acid], for the setting “at 10 μM test compound, CV-1 cells expressing human PPARγ and RXRα, pioglitazone as stimulant, read-out: Human PPARγ antagonist activities, Inhibition % at 10 μM”, the inhibition (commonly the drop in the measured response relative to a control, in per cent) at 10 µM stood at 38.2%.

With `COc1cc(Cn2c3ccccc3c3c(OC(C)(C)C(=O)O)cccc32)ccc1OCc1nc(-c2cccs2)oc1C` [Example 8, 2-{9-[3-methoxy-4-((5-methyl-2-(thiophene-2-yl)-oxazole-4-yl)methoxy)-benzyl]-9H-carbazole-4-yloxy}-2-methyl-propionic acid], the IC50 came out at 545 nM.

Regarding `COc1cc(Cn2c3ccccc3c3c(OC(C)C(=O)O)cccc32)ccc1OCc1nc(-c2ccccc2)oc1C` (racemic) [Example 4, (±)-2-{9-[3-methoxy-4-((5-methyl-2-phenyl-oxazole-4-yl)methoxy)-benzyl]-9H-carbazole-4-yloxy}propionic acid], the IC50 amounted to 939 nM.

As for `COc1cc(Cn2c3ccccc3c3c(OCC(C)(C)C(=O)[O-])cccc32)ccc1OCc1nc(-c2ccccc2)oc1C.[Na+]` [Example 34], the half-maximal inhibitory concentration (IC50) amounted to 85 nM.

In the case of `COc1cc(Cn2c3ccccc3c3c(OC(C)(C)C(=O)O)cccc32)ccc1OCc1nc(-c2ccccc2)oc1C` [Example 3, 2-{9-[3-methoxy-4-((5-methyl-2-phenyl-oxazole-4-yl)methoxy)-benzyl]-9H-carbazole-4-yloxy}-2-methyl-propionic acid], the half-inhibitory concentration (IC50) came to 420 nM.

Take `COc1cc(Cn2c3ccccc3c3c(OC(C)(C)C(=O)[O-])cccc32)ccc1OCc1nc(-c2ccccc2)oc1C.[Na+]` [Example 28, sodium 2-{9-[3-methoxy-4-((5-methyl-2-phenyl-oxazole-4-yl)methoxy)-benzyl]-9H-carbazole-4-yloxy}-2-methyl-propionate]: the IC50 was 398 nM.
